Laboratory results reported in US20240124485A1, “SUBSTITUTED AMIDE MACROCYCLIC COMPOUNDS WITH OREXIN-2 RECEPTOR AGONIST ACTIVITY” (Alkermes, Inc., priority 2021, published 2024).

biological target: T1, human orexin-2 receptor (OX2R) (Homo sapiens, UniProt O43614); assay: Human OX2R IP1 assay; format: cell-based; conditions: T-Rex CHO cells stably overexpressing the human orexin-2 receptor; IP1 accumulation, 1 hr at 37 degrees C
T1 construct: expressed in transfected cells
T1 sequence (O43614 1-444): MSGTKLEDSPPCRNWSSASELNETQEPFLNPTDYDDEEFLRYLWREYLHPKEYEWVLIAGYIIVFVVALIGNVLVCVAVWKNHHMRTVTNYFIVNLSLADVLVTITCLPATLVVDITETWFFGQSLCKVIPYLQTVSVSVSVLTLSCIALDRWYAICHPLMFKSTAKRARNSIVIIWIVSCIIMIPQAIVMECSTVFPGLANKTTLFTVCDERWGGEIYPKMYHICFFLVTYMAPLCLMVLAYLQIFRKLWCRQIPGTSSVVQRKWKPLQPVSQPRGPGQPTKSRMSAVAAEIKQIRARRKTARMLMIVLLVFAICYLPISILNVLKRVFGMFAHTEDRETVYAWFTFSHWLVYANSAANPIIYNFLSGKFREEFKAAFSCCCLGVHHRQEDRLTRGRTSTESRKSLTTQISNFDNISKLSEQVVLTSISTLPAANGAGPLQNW
Description: T-Rex CHO cells stably overexpressing the human orexin-2 receptor (OX2R) were induced overnight with 1 μg/mL of doxycycline in a T225 flask. 24 hours post induction, cells were lifted with accutase and plated into a 384-well proxy plate at 30,000 cells/well. Cells were then treated with different test compounds in 1× stimulation buffer containing 10 mM Hepes, 1 mM CaCl2), 0.5 mM MgCl2, 4.2 mM KCl, 146 mM NaCl, 5.5 mM glucose, and 50 mM LiCl, pH 7.4, for 1 hr at 37 degrees C. Following incubation, the reaction was terminated by the addition of detection mix, which is composed of IP1-d2 and anti-IP1-cryptate diluted in lysis buffer as well as 1× stimulation buffer. The plates were allowed to incubate for 1 hour at room temperature and were then read in the ENVISION® multimode plate reader, measuring inositol phosphate levels.
Cisbio IP1 is a cell-based functional assay quantifying the accumulation of inositol monophosphate (IP), a metabolite released as a result of orexin 2 receptor activation through the phospholipase C-Gq signaling pathway. This is a competitive immunoassay in which the IP1 produced by the cells upon receptor activation competes with the IP1 analog coupled to the d2 fluorophore (acceptor) for binding to an anti-IP1 monoclonal antibody labeled with Eucryptate (donor). The measured HTRF-FRET based signal is inversely proportional to the IP1 concentration produced.
The EC50 values reported in Table 2 were obtained according to the human OX2R IP1 assay described above. Data are the mean EC50 values ±S.E.M.

Row | EC50 [nM] | Compound
1 | 100 to 1000 | O=C(N[C@H]1CCCN2C(=O)COc3ccccc3C3CCC(CC3)OC[C@@H]12)C1CCOC1 (stereo in doubt) [Compound 6]
2 | 100 to 1000 | O=C(N[C@H]1CCCN2C(=O)COc3ccccc3C3CCC(CC3)OC[C@@H]12)C1CCO1 (stereo in doubt) [Compound 9]
3 | < 100 | O=C(N[C@H]1CCCN2C(=O)COc3ccccc3C3CCC(CC3)OC[C@@H]12)C1CCO1 (stereo in doubt) [Compound 12]
4 | 100 to 1000 | O=C(N[C@H]1CCCN2C(=O)COc3ccccc3C3CCC(CC3)OC[C@@H]12)C1CCCOC1 (stereo in doubt) [Compound 11]
5 | 100 to 1000 | O=C(N[C@H]1CCCN2C(=O)COc3ccccc3C3CCC(CC3)OC[C@@H]12)C1CCCOC1 (stereo in doubt) [Compound 4]
6 | < 100 | O=C(N[C@H]1CCCN2C(=O)COc3ccccc3C3CCC(CC3)OC[C@@H]12)C1COCCO1 (stereo in doubt) [Compound 1]
7 | 100 to 1000 | O=C(N[C@H]1CCCN2C(=O)COc3ccccc3C3CCC(CC3)OC[C@@H]12)C1CCOC1 (stereo in doubt) [Compound 5]
8 | < 100 | O=C(N[C@H]1CCCN2C(=O)COc3ccccc3[C@H]3CC[C@H](CC3)OC[C@@H]12)C1COC1 [Compound 16]
9 | < 100 | O=C(N[C@H]1CCCN2C(=O)COc3ccccc3C3CCC(CC3)OC[C@@H]12)C1CCCO1 (stereo in doubt) [Compound 10]
10 | 100 to 1000 | O=C(N[C@H]1CCCN2C(=O)COc3ccccc3C3CCC(CC3)OC[C@@H]12)C1COCCO1 (stereo in doubt) [Compound 8]

Second part, the compound before the results:

Row | Compound | EC50 [nM]
11 | Cc1cccc2c1C1CCC(CC1)OCC1[C@@H](NC(=O)C3CCCO3)CCCN1C(=O)CO2 (some centres unmarked) [Compound 15] | < 100
12 | O=C(N[C@H]1CCCN2C(=O)COc3ccccc3C3CCC(CC3)OC[C@@H]12)C1CCCCO1 (stereo in doubt) [Compound 2] | < 100
13 | O=C(N[C@H]1CCCN2C(=O)COc3ccccc3[C@H]3CC[C@H](CC3)OC[C@@H]12)c1ncco1 [Compound 18] | > 1000
14 | CN1CCOC(C(=O)N[C@H]2CCCN3C(=O)COc4ccccc4C4CCC(CC4)OCC23)C1 (some centres unmarked) [Compound 21] | > 1000
15 | O=C(N[C@H]1CCCN2C(=O)COc3ccccc3C3CCC(CC3)OCC12)C1CCCCO1 (some centres unmarked) [Compound 20] | > 1000
16 | CN(C)C(=O)C(=O)N[C@H]1CCCN2C(=O)COc3ccccc3[C@H]3CC[C@H](CC3)OC[C@@H]12 [Compound 7] | < 100
17 | Cc1ccnc2c1C1CCC(CC1)OCC1[C@@H](NC(=O)C3CCCO3)CCCN1C(=O)CO2 (some centres unmarked) [Compound 17] | < 100
18 | CN1CCC1C(=O)N[C@H]1CCCN2C(=O)COc3ccccc3C3CCC(CC3)OCC12 (some centres unmarked) [Compound 19] | > 1000
19 | CN1CCC1C(=O)N[C@H]1CCCN2C(=O)COc3ccccc3C3CCC(CC3)OCC12 (some centres unmarked) [Compound 23] | > 1000
20 | CN1CCCC1C(=O)N[C@H]1CCCN2C(=O)COc3ccccc3C3CCC(CC3)OCC12 (some centres unmarked) [Compound 22] | > 1000
21 | CN1CCCC1C(=O)N[C@H]1CCCN2C(=O)COc3ccccc3C3CCC(CC3)OCC12 (some centres unmarked) [Compound 24] | > 1000
22 | Cc1cccc2c1C1CCC(CC1)OC[C@H]1[C@@H](NC(=O)C3CCCO3)CCCN1C(=O)CO2 (stereo in doubt) [Compound 14] | < 100
23 | Cc1ccnc2c1C1CCC(CC1)OC[C@H]1[C@@H](NC(=O)C3CCCO3)CCCN1C(=O)CO2 (stereo in doubt) [Compound 13] | < 100
24 | COCC(=O)N[C@H]1CCCN2C(=O)COc3ccccc3[C@H]3CC[C@H](CC3)OC[C@@H]12 (stereo in doubt) [Compound 3] | < 100
25 | COC1(C(=O)N[C@H]2CCCN3C(=O)COc4ccccc4[C@H]4CC[C@H](CC4)OC[C@@H]23)CC1 [Compound 89] | > 1000
26 | CN1CCOC(C(=O)N[C@H]2CCCN3C(=O)COc4ccccc4C4CCC(CC4)OCC23)C1 (some centres unmarked) [Compound 25] | > 1000
